The values that follow come from patent US20210228562A1, “IRAK DEGRADERS AND USES THEREOF” (Kymera Therapeutics, Inc., priority 2019, published 2021).

Molecules are shown by their SMILES. Read-outs that look alike come from different tables or passages of the source.

What all share (format): cell-based
The subject of one assay is OCI-LY10 cells. Kind of assay: CTG Cell Viability Assay - OCI-LY10. As to conditions: Homo sapiens, 96 h, CellTiter-Glo, 4 days incubation. On the procedure: Compound-mediated viability effect on OCI-LY10 or SUDHL-2 was quantitatively determined using the CellTiter-Glo® Luminescent Cell Viability Assay kit from Promega (Catalog number G7570) following manufacturer's recommended procedures. Briefly, OCI-LY10 or SUDHL-2 cells were seeded into 384 well plates (Grenier Bio-One, Catalog number 781080) with a density of 10,000 cells per well. Compounds were then added to the assay plate with final top concentration of 10 μM and 1:3 dilution series with total of 9 doses. The final DMSO concentration was normalized to 0.2%. The assay plates were incubated at 37° C. for 4 days under 5% CO2. Then the assay plate was equilibrated at room temperature for 10 minutes. To determine cell viability, 30 μL CellTiter Glo reagent was added to each well and the assay plate was centrifuged at 1000 rpm for 30 second, incubated at room temperature for 10 min, and analyzed by detecting the luminescence using a multimode plate reader (EnVision 2105, PerkinElmer). The data was then analyzed by software Prism 7.0 from GraphPad and the dose response curves were fit using a three-parameter logistic equation to calculate IC50.
For orientation: In ATP-based viability assays light output follows the ATP content of the culture.

For a further assay, the target named is T1, IRAK4 (Homo sapiens, UniProt Q9NWZ3).
T1 construct: endogenous in cells; host or cells: OCI-LY10
T1 sequence (Q9NWZ3 1-460): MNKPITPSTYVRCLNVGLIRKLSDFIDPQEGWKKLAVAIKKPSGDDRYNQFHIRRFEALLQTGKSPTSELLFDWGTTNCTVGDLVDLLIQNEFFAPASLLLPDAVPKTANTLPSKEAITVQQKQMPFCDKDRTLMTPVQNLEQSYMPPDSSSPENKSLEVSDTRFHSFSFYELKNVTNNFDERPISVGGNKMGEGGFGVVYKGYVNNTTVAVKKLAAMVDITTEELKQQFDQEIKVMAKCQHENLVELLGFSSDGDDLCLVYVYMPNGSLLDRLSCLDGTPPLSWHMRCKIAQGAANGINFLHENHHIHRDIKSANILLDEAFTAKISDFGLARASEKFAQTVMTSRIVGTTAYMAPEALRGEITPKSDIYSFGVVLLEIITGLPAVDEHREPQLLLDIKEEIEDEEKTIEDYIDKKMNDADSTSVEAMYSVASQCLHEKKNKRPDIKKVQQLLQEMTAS
Briefly: IRAK4 MSD Degradation in OCI-LY10. The settings on record: OCI-LY10 cells. On the procedure:
Degradation of IRAK4 in OCI-LY10 was quantitatively measured using Meso Scale Discovery technology. OCI-LY10 cells were seeded in 96-well plates (Corning 3799) with a density of 300,000 cells per well in 100 μL fresh media. Compounds were then added to the assay plates with a final top concentration of 1 to 10 μM in a 1:3 dilution series with total of 8 doses. The assay plates were then incubated for 4 to 24 hours at 37° C. under 5% CO2. The assay plates were then centrifuged for 5 minutes and the cell pellets were treated with 100 μL/well RIPA lysis buffer (Boston BioProducts BP-115D) with proteinase inhibitors. To prepare MSD assay plates (Meso Scale Discovery Catalog number L15XA-3), the plates were coated with 2 μg/mL capture antibody (mouse Anti-IRAK4 antibody [2H9], ab119942) in PBS, at 40 μL/well. The plates were then incubated overnight at 4° C., washed 3 times with 150 μL/well TBST buffer (Cell Signaling Technology, Catalog number 9997S) and blocked with 150 μL/well blocking buffer (Meso Scale Discovery Catalog number R93BA-4). Cell lysates were then added to MSD assay plates and the plates were incubated at room temperature for 1 hour. The plates were then washed 3 times with 150 μL/well TBST buffer and 25 μL/well primary detection antibody (rabbit Anti-IRAK4 antibody [Y279], from Abcam. Catalog number ab32511, 1 μg/mL). The assay plates were then incubated at room temperature for 1 hour, washed 3 times with 150 μL/well TBST buffer and 25 μL/well secondary detection antibody, SULFO-TAG anti-rabbit antibody were added (anti rabbit antibody from Meso Scale Discovery, Catalog number R32AB-1, 1 μg/mL). The assay plates were then incubated at room temperature for 1 hour, washed 3 times with 150 μL/well TBST buffer, and 150 μL/well MSD reading buffer (Meso Scale Discovery catalog number R92TC-2) was added. The plates were then analyzed by a MSD reader (Meso Scale Discovery, Model Quick Plex SQ 120). The data was then analyzed by software Prism 7.0 from GraphPad and the dose-depended IRAK4 degradation were fit using a three-parameter logistic equation to calculate DC50.

The target of assay [1] is T2, Ikaros (protein product of gene IKZF1) (Homo sapiens, UniProt Q13422+Q96SW2).
T2 construct: endogenous in cells; host or cells: OCI-LY10
T2 sequence (Q13422 whole entry): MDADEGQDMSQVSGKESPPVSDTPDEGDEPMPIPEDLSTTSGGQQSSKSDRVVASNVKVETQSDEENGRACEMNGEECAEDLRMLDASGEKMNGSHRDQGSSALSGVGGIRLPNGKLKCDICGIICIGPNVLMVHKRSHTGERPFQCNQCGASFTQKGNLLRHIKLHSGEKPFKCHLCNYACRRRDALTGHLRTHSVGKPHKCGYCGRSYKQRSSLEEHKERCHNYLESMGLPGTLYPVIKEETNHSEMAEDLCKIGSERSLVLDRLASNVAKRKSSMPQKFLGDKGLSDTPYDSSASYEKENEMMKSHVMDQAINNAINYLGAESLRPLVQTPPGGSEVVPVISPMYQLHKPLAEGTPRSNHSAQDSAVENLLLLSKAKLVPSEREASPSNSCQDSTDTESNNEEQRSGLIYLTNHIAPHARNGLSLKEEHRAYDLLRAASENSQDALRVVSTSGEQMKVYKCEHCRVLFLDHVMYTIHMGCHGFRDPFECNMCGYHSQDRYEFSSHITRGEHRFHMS
T2 sequence (Q96SW2 whole entry): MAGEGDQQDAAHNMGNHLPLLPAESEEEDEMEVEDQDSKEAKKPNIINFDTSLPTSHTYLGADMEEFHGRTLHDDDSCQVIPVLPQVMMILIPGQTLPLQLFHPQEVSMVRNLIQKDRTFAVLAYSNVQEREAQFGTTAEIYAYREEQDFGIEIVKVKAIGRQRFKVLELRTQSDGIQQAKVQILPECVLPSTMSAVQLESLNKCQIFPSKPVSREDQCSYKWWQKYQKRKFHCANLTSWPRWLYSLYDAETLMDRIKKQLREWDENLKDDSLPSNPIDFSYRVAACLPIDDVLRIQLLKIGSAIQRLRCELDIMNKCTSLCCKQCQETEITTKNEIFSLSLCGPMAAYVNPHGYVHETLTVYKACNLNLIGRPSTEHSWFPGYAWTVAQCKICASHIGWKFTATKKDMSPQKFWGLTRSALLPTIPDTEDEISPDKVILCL
T2 sequence (Q16531 whole entry partner): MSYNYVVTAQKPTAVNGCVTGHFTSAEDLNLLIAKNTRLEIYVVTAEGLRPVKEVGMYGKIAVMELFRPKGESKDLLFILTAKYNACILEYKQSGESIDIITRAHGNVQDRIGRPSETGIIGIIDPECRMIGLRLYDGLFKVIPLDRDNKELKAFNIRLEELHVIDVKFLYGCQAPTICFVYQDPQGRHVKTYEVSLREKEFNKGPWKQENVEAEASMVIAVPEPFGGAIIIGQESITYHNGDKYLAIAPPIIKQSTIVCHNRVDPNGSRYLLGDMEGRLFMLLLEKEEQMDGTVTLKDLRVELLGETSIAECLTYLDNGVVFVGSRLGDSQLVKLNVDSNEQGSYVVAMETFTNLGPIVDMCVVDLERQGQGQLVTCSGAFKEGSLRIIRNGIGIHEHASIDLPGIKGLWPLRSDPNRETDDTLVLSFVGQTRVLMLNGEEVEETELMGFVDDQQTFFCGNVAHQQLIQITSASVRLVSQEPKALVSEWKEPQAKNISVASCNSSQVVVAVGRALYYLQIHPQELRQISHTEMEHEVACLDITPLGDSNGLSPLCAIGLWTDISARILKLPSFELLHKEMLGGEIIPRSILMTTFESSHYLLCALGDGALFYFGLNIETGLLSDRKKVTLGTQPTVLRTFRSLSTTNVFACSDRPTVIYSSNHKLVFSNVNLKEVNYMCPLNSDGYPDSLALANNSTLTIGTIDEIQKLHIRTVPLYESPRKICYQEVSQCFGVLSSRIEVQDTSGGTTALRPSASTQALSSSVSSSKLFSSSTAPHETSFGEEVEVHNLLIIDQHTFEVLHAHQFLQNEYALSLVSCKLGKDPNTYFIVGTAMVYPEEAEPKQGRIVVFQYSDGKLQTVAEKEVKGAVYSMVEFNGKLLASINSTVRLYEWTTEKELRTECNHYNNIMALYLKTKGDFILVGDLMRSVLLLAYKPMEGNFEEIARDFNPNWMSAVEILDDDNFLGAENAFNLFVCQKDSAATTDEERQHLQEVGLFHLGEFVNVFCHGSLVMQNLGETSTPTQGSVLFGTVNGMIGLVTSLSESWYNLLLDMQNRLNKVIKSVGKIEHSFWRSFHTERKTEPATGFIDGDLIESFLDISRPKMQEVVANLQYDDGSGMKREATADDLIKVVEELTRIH
Kind of assay: Quantification of Ikaros degradation in OCI-LY10 cells (quantitative immunoblotting). As to conditions: 6 h treatment. On the procedure:
(§1) Degradation of Ikaros (protein product of gene IKZF1) and Aiolos (protein product of gene IKZF3) were determined by quantitative immunoblotting as follows. OCI-LY10 cells, 2×10^6 cells/well, were treated with listed concentrations of IRAK4 degraders or control compounds in 6 well plates for 6 h. Cells were collected, washed with cold PBS, lysed in RIPA buffer (Boston BioProducts BP-115D) with protease/phosphatase inhibitor cocktail (Roche 05892791001/Roche 04906837001) and centrifuged at 13000 RPM for 20 min to precipitate insoluble material. The supernatant fraction was diluted in SDS-PAGE loading buffer (Beyotime Bio P0015) and 20 μL of each sample was resolved on 4-12% Bis-Tris SDS-PAGE gels (Novex, WG1402BOX). Resolved samples were transferred to nitrocellulose membranes by wet electro-transfer method at 250 mV for 1.5 h. The membrane was blocked with LICOR blocking buffer (LI-COR, 927-50000) for 1 hour, washed three times with TBST (CST #99975) for 5 minutes each and incubated with primary antibody prepared in block buffer with 0.1% Tween-20 (Solarbio, P8220) at 4° C. overnight. Ikaros antibody was rabbit monoclonal D6N9Y (CST #14859), at 1:1000 dilution. Aiolos antibody was rabbit monoclonal D1C1E (CST #15103), at 1:1000 dilution. Signal was normalized to mouse anti-beta-Actin monoclonal 8H10D10 (CST #3700) used at 1:10,000 dilution. After incubation in primary antibodies, membranes were washed three times with TBST, 5 minutes each, incubated with fluorescently labeled secondary antibodies anti-rabbit IgG (Licor, 926-32211) at 1:5000 dilution; anti-mouse IgG (LI-COR, 926-68070) at 1:5000 dilution, for 1 hour at RT. After incubation in secondary, membranes were washed three times with TBST, 5 minutes each and read on LICOR Odyssey imager. Data was reported as signal for Ikaros or Aiolos relative to signal for actin, and normalized to DMSO-treated control.
A general note: Immunoblotting shows a protein as a band on a membrane.

Assay [2] deals with T3, Aiolos (protein product of gene IKZF3) (Homo sapiens, UniProt Q96SW2+Q9UKT9).
T3 construct: endogenous in cells; host or cells: OCI-LY10
T3 sequence (Q9UKT9 whole entry): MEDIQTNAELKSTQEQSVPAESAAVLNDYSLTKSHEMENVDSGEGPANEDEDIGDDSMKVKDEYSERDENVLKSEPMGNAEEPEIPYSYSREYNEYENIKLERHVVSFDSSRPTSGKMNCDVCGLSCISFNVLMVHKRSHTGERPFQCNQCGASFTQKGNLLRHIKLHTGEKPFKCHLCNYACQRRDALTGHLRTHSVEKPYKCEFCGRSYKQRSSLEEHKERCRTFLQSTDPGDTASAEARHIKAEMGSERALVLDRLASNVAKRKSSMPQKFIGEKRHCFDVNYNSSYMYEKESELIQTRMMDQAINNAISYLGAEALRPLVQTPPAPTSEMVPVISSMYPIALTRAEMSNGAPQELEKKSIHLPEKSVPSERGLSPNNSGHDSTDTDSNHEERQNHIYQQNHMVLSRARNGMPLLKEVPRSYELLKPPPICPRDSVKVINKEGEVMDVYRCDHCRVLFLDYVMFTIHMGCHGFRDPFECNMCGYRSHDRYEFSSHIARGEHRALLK
T3 sequence (Q96SW2 whole entry): as the sequence (Q96SW2 whole entry) above
T3 sequence (Q16531 whole entry partner): as the sequence (Q16531 whole entry partner) above
Kind of assay: Quantification of Aiolos degradation in OCI-LY10 cells (quantitative immunoblotting). As to conditions: 6 h treatment. On the procedure:
as §1

[3] abbreviates: 24 hrs incubation, read-out: IRAK4 degradation in OCI-LY10 at 24 hrs: DC50.

The IC50 is the concentration at which inhibition is half-maximal. With `CC(C)(O)c1cc2nc([C@H]3CC[C@H](CN4CC5(CC(CCNc6cccc7c6C(=O)N(C6CCC(=O)NC6=O)C7=O)C5)C4)CC3)sc2cc1NC(=O)c1cnccn1` (some centres unmarked) [I-58], the IC50 in the assay on OCI-LY10 cells is below 50 nM.

The DC50 is the midpoint of the concentration-degradation curve. Consider `CC(C)(O)c1cc2nc(N3CCC(CN4CCC5(CC4)CC(CNc4cccc6c4C(=O)N(C4CCC(=O)NC4=O)C6=O)C5)CC3)sc2cc1NC(=O)c1cccc(C(F)(F)F)n1` (centres unmarked) [I-35], for which the DC50 at IRAK4 (setting [3]) was 50 to 100 nM; in assay [1] it was below 50 nM; in assay [2], below 50 nM. In the assay on OCI-LY10 cells, the IC50 lay in the range of 500 to 1000 nM.

For the compound `CC(C)(O)c1cc2nc([C@H]3CC[C@H](CN4CC5(CC(CNc6cccc7c6C(=O)N(C6CCC(=O)NC6=O)C7=O)C5)C4)CC3)sc2cc1NC(=O)c1cccc(C(F)(F)F)n1` (some centres unmarked) [I-26], the half-maximal degradation concentration (DC50) (at IRAK4 (setting [3]); in assay [1]; in assay [2]) was below 50 nM each time. In the assay with OCI-LY10 cells, this compound gave an IC50 of 50 to 100 nM.

On to `CC(C)(O)c1cc2nc([C@H]3CC[C@H](CN4CC5(CC(CCNc6cccc7c6C(=O)N([C@@H]6CCC(=O)NC6=O)C7=O)C5)C4)CC3)sc2cc1NC(=O)c1cccc(C(F)(F)F)n1` (single isomer, unassigned) [I-65], for which the DC50 (on IRAK4 (setting [3]); in assay [1]; in assay [2]) was below 50 nM in each case.

As to `CC(C)(O)c1cc2nc([C@H]3CC[C@H](CN4CC5(CC(CCNc6cccc7c6C(=O)N(C6CCC(=O)NC6=O)C7=O)C5)C4)CC3)sc2cc1NC(=O)c1cccc(C(F)(F)F)n1` (some centres unmarked) [I-3, N-[2-[4-[[6-[2-[[2-(2,6-dioxo-3-piperidyl)-1,3-dioxo-isoindolin-4-yl]amino]ethyl]-2-azaspiro[3.3]heptan-2-yl]methyl]cyclohexyl]-5-(1-hydroxy-1-methyl-ethyl)-1,3-benzothiazol-6-yl]-6-(trifluoromethyl)pyridine-2-carboxamide], the 50% degradation concentration (DC50) was 50 to 100 nM on IRAK4 (4 hrs incubation, read-out: IRAK4 degradation in OCI-LY10 at 4 hrs: DC50); below 50 nM at IRAK4 (setting [3]); below 50 nM in assay [1]; below 50 nM in assay [2].

As for `Cc1nccc(C(=O)Nc2cc3sc([C@H]4CC[C@H](CN5CC6(CC(CCNc7cccc8c7C(=O)N(C7CCC(=O)NC7=O)C8=O)C6)C5)CC4)nc3cc2C(C)(C)O)n1` (some centres unmarked) [I-51], the DC50 at IRAK4 (setting [3]) is above 1000 nM. This compound also showed an IC50 in the assay with OCI-LY10 cells below 50 nM.

Consider `CC(C)(O)c1cc2nc([C@H]3CC[C@H](CN4CC5(CC(CCNc6cccc7c6C(=O)N([C@H]6CCC(=O)NC6=O)C7=O)C5)C4)CC3)sc2cc1NC(=O)c1cccc(C(F)(F)F)n1` (single isomer, unassigned) [I-66], for which the DC50 (on IRAK4 (setting [3]); in assay [1]; in assay [2]) was below 50 nM in each case.

On to `CC(C)(O)c1cc2nc([C@H]3CC[C@@H](CN4CC5(CC(CCNc6cccc7c6C(=O)N(C6CCC(=O)NC6=O)C7=O)C5)C4)CC3)sc2cc1NC(=O)c1cccc(C(F)(F)F)n1` (stereo partly drawn) [I-62, N-(2-((1S,4S)-4-((6-(2-((2-(2,6-dioxopiperidin-3-yl)-1,3-dioxoisoindolin-4-yl)amino)ethyl)-2-azaspiro[3.3]heptan-2-yl)methyl)cyclohexyl)-5-(2-hydroxypropan-2-yl)benzo[d]thiazol-6-yl)-6-(trifluoromethyl)picolinamide], for which the half-maximal degradation concentration (DC50) on IRAK4 (setting [3]) is 50 to 100 nM; in assay [1], below 50 nM; in assay [2], below 50 nM.

In the assay on OCI-LY10 cells, `CC(C)(O)c1cc2nc([C@H]3CC[C@H](CN4CC5(CC(CCNc6cccc7c6C(=O)N(C6CCC(=O)NC6=O)C7=O)C5)C4)CC3)sc2cc1NC(=O)c1ccccn1` (some centres unmarked) [I-57] showed a half-inhibitory concentration (IC50) below 50 nM.

`CC(C)(O)c1cc2nc([C@H]3CC[C@H](CN4CC5(CC(CCNc6cccc7c6C(=O)N(C6CCC(=O)NC6=O)C7=O)C5)C4)CC3)sc2cc1N1CCc2ccccc2C1=O` (some centres unmarked) [I-60]: at IRAK4 (setting [3]), the DC50 was below 50 nM. In the assay with OCI-LY10 cells, the IC50 was below 50 nM.

As for `CC(C)(O)c1cc2nc([C@H]3CC[C@H](CN4CC5(CC(CCNc6cccc7c6C(=O)N(C6CCC(=O)NC6=O)C7=O)C5)C4)CC3)sc2cc1NC(=O)c1cccc(C(C)(F)F)n1` (some centres unmarked) [I-56], the DC50 (at IRAK4 (setting [3]); in assay [1]; in assay [2]) was below 50 nM in each case.

Regarding `CC(C)(O)c1cc2nc([C@H]3CC[C@@H](N4CC5(CC(CCNc6cccc7c6C(=O)N(C6CCC(=O)NC6=O)C7=O)C5)C4)CC3)sc2cc1NC(=O)c1cccc(C(F)(F)F)n1` (single isomer, unassigned) [I-64], the IC50 in the assay on OCI-LY10 cells was below 50 nM.

`CC(C)(O)c1cc2nc(N3CCC(CN4CCC5(CC4)CC(CCNc4cccc6c4C(=O)N(C4CCC(=O)NC4=O)C6=O)C5)CC3)sc2cc1NC(=O)c1cccc(C(F)(F)F)n1` (centres unmarked) [I-18]: the DC50 in assay [1] and in assay [2] was below 50 nM each time.

`CC(C)(O)c1cc2nc([C@H]3CC[C@H](CN4CCC5(CC4)CC(CCNc4cccc6c4C(=O)N(C4CCC(=O)NC4=O)C6=O)C5)CC3)sc2cc1NC(=O)c1cccc(C(F)(F)F)n1` (some centres unmarked) [I-5]: the DC50 in assay [1] and in assay [2] was below 50 nM in each case.

As to `COc1cc2nc([C@H]3CC[C@H](CN4CC5(CC(CCNc6cccc7c6C(=O)N(C6CCC(=O)NC6=O)C7=O)C5)C4)CC3)sc2cc1NC(=O)c1cccc(C(F)(F)F)n1` (some centres unmarked) [I-10], the DC50 in assay [1] and in assay [2] was below 50 nM throughout.

In the case of `CC(C)(O)c1cc2nc([C@H]3CC[C@H](CN4CC5(CC(CCNc6cccc7c6C(=O)N(C6CCC(=O)NC6=O)C7=O)C5)C4)CC3)sc2cc1NC(=O)c1cnn2ccc(N3C[C@H]4C[C@@H]3CO4)nc12` (some centres unmarked) [I-61], at IRAK4 (setting [3]), the DC50 is above 1000 nM.
